This is an account of results in the supplement of paper PMC11061612.

Holding throughout (experiment): combination Emax (second highest fraction inhibited in the dose matrix, 72 h); higher = more inhibition; extreme values may be limits of the assay
For test [1], the system named is 8-MG-BA (Glioblastoma). In short, it runs like this: (§1)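 Cell lines grown in DMEM/F12 or RPMI with 10% FBS were plated in 1536-well plates and held 24 hours at 37°C, 5% CO2 before 72 hours of exposure to two-drug dose matrices, with DMSO typically at 0.2%. CellTiter-Glo 2.0 luminescence gave viability, which was converted to inhibition. Vehicle wells were set to 0 and blank wells to 1. Combination Emax is the second-highest inhibition in the matrix, and Bliss excess is the observed combination effect minus the expected EA + EB − EA·EB, where EA and EB are the single-agent effects.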

The subject of test [2] is A498 (Kidney Carcinoma). In short, it runs like this: as §1
Test [3] has as its system A549 (Lung Adenocarcinoma). In short, it runs like this:
as §1

For test [4], the system named is BICR22 (Oral Cavity Carcinoma). In short, it runs like this:
as §1

Test [5] relates to CAL-29 (Bladder Carcinoma). In short, it runs like this: as §1
Test [6] relates to CAPAN-2 (Pancreatic Carcinoma). In short, it runs like this:
as §1

Test [7] relates to CCK-81 (Colorectal Carcinoma). A digest of the protocol:
as §1

Test [8] has as its system COR-L311 (Small Cell Lung Carcinoma). In short, it runs like this:
as §1

In test [9] the test system is GI-ME-N (Neuroblastoma). A digest of the protocol: as §1
Test [10] has as its system Hs-445 (Non-Cancerous). In short, it runs like this:
as §1

The test system of test [11] is IGR-37 (Melanoma). A digest of the protocol: as §1
In test [12] the test system is JSC-1 (B-Cell Non-Hodgkin's Lymphoma). In short, it runs like this: as §1
Test [13] relates to KARPAS-422 (B-Cell Non-Hodgkin's Lymphoma). A digest of the protocol:
as §1

Test [14] relates to LN-405 (Glioblastoma). A digest of the protocol: as §1
Test [15] deals with NCI-H1581 (Non-Small Cell Lung Carcinoma). In short, it runs like this:
as §1

The test system of test [16] is PA-1 (Ovarian Carcinoma). In short, it runs like this:
as §1

For test [17], the system named is PANC-10-05 (Pancreatic Carcinoma). In short, it runs like this: as §1
The test system of test [18] is TT2609-C02 (Thyroid Gland Carcinoma). In short, it runs like this: as §1
Test [19] has as its system U-2-OS (Osteosarcoma). A digest of the protocol: as §1
Test [20] deals with MDST8 (Colorectal Carcinoma). A digest of the protocol: as §1

For `CN(CCO)CC[C@H](CSc1ccccc1)Nc1ccc(S(=O)(=O)NC(=O)c2ccc(N3CCC([C@@H](O)c4ccccc4-c4ccc(Cl)cc4)CC3)cc2)cc1S(=O)(=O)C(F)(F)F` [AZD4320] + C[C@@H](Nc1cc(F)cc(F)c1)c1cc(C(=O)N(C)C)cc2c(=O)cc(N3CCOCC3)oc12 [AZD8186] (first compound max 1 µM, 7x7, partner max 3 µM), the “combination Emax” value in test [1] is 0.316; in test [2], 0.911; in test [3], 0.401; in test [4] it was 0.838; in [5], 0.515; in test [6] it was 0.678. The “combination Emax” value in test [7] is 0.338; in [8] it was 1; in [9], 0.469; in test [10] it was 0.97; in test [11], 0.341; in test [12], 0.546. The “combination Emax” value in test [13] was found to be 0.999; in test [14], 0.615; in [15], 0.287; in test [16] it was 0.927; in [17] it was 0.383; in test [18] it was 0.294. Moreover, the “combination Emax” value in [19] is 0.382.
Regarding `CN(CCO)CC[C@H](CSc1ccccc1)Nc1ccc(S(=O)(=O)NC(=O)c2ccc(N3CCC([C@@H](O)c4ccccc4-c4ccc(Cl)cc4)CC3)cc2)cc1S(=O)(=O)C(F)(F)F` [AZD4320] + Cc1cc2ncnn2cc1Nc1ncc2c(n1)n(C1CCOCC1)c(=O)n2C [AZD7648] (first compound max 1 µM, 7x7, partner max 10 µM), the “combination Emax” value in test [1] stood at 0.168; in test [2], 0.37; in test [3], 0.369; in [4], 0.594; in test [5], 0.21; in test [6] it was 0.653. The “combination Emax” value was found to be 0.111 in [7]; 1 in test [8]; 0.153 in test [9]; 0.746 in test [10]; 0.18 in [11]; 0.246 in test [12]. In addition, the “combination Emax” value in [14] was 0.36; in test [20], 0.821; in [15], 0.271; in test [16], 0.61; in [17], 0.311; in test [18] it was 0.182. For the same compound, the “combination Emax” value in test [19] amounted to 0.238.
With `COc1nnc2ccc(N3CCC(c4ccc(OCCN5CCN(C)C(=O)[C@H]5C)cc4)CC3)nn12` [AZD5153] + CN(CC[C@H](CSC1=CC=CC=C1)NC2=C(C=C(C=C2)S(=O)(=O)NC(=O)C3=CC=C(C=C3)N4CCC(CC4)[C@H](C5=CC=CC=C5C6=CC=C(C=C6)Cl)O)S(=O)(=O)C(F)(F)F)CCO [AZD4320] (first compound max 1 µM, 7x7, partner max 1 µM), the “combination Emax” value in test [1] is 0.772; in test [2] it was 0.66; in test [3], 0.735; in [5], 0.401; in test [8] it was 1; in test [9], 0.246. Further, the “combination Emax” value in test [10] amounted to 0.889; in test [12], 0.71; in [14] it was 0.723; in test [20] it was 0.918; in test [16] it was 0.9; in [18] it was 0.424. The “combination Emax” value in test [19] is 0.319.
Take `C[C@@H]1COCCN1c1cc(C2([S@](C)(=N)=O)CC2)nc(-c2ccnc3[nH]ccc23)n1` [AZD6738] + O=C(c1cc(Cc2n[nH]c(=O)c3ccccc23)ccc1F)N1CCN(C(=O)C2CC2)CC1 [Olaparib] (first compound max 10 µM, 7x7, partner max 10 µM): the “combination Emax” value came to 0.85 in [1]; 0.636 in [2]; 0.809 in test [3]; 0.711 in test [4]; 0.71 in [5]; 0.309 in test [6]. The “combination Emax” value in test [8] came to 0.509; in test [9], 0.486; in test [10], 0.835; in test [11], 0.738; in test [12], 0.822; in test [13], 0.556. For the same compound, the “combination Emax” value in [14] worked out at 0.391; in [20], 0.677; in [15] it was 0.528; in test [16], 0.768; in [17] it was 0.486; in test [18], 0.316. For the same compound, in test [19], the “combination Emax” value worked out at 0.723.
Consider `CC(=O)c1c(C)c2cnc(Nc3ccc(N4CCNCC4)cn3)nc2n(C2CCCC2)c1=O` [Palbociclib] + CN(CC[C@H](CSC1=CC=CC=C1)NC2=C(C=C(C=C2)S(=O)(=O)NC(=O)C3=CC=C(C=C3)N4CCC(CC4)[C@H](C5=CC=CC=C5C6=CC=C(C=C6)Cl)O)S(=O)(=O)C(F)(F)F)CCO [AZD4320] (first compound max 10 µM, 7x7, partner max 1 µM), for which the “combination Emax” value in test [1] is 0.337; in test [2], 0.658; in test [3], 0.723; in [5], 0.172; in test [8], 1; in test [9] it was 0.211. In addition, the “combination Emax” value was found to be 0.95 in test [10]; 0.59 in test [12]; 0.69 in [14]; 0.781 in [20]; 0.872 in test [16]; 0.29 in [18]. Moreover, the “combination Emax” value in [19] worked out at 0.355.
Turning to `CCc1c2c(nc3ccc(O)cc13)-c1cc3c(c(=O)n1C2)COC(=O)[C@]3(O)CC` [SN-38] + O=C(c1cc(Cc2n[nH]c(=O)c3ccccc23)ccc1F)N1CCN(C(=O)C2CC2)CC1 [Olaparib] (first compound max 0.3 µM, 7x7, partner max 10 µM), the “combination Emax” value worked out at 0.986 in test [1]; 0.598 in test [2]; 0.817 in test [3]; 0.95 in [4]; 0.137 in [6]; 0.587 in [7]. The “combination Emax” value in test [9] was determined as 0.494; in test [10], 1; in [11], 0.863; in [12] it was 0.973; in [13], 0.957; in test [14] it was 0.413. Further, the “combination Emax” value in test [20] stood at 0.745; in test [15], 0.722; in test [16], 0.848; in test [17] it was 0.76; in test [19], 0.205.
In the case of `C[C@@H](c1ccc2nccn2c1)n1nnc2ncc(-c3cnn(C)c3)nc21` [Savolitinib] + CN(CC[C@H](CSC1=CC=CC=C1)NC2=C(C=C(C=C2)S(=O)(=O)NC(=O)C3=CC=C(C=C3)N4CCC(CC4)[C@H](C5=CC=CC=C5C6=CC=C(C=C6)Cl)O)S(=O)(=O)C(F)(F)F)CCO [AZD4320] (first compound max 1 µM, 7x7, partner max 1 µM), the “combination Emax” value came to 0.116 in test [1]; 0.308 in test [2]; 0.165 in [3]; 0.174 in test [5]; 1 in test [8]; 0.229 in test [9]. For the same compound, the “combination Emax” value in [10] was 0.625; in [12] it was 0.117; in [14], 0.455; in test [20], 0.626; in test [16], 0.465; in test [18] it was 0.174. The “combination Emax” value in [19] was 0.385.
